Assay results published in patent US4495101A, “Antiinflammatory 5H-tetrazolo (5,1-c)(1,4)benzodiazepine derivatives” (American Home Products Corporation, priority 1983, dated 1985).

system: carrageenan-induced paw edema; test: rat carrageenan edema test (paw volume, mercury plethysmography); assay type: in vivo, male Sprague-Dawley or Charles River rats; settings: 150 mg/kg oral, one hour prior to 1% carrageenan, read three hours after carrageenan, vs control, *p ≤ 0.05, **p ≤ 0.01
Protocol: The anti-inflammatory activity of the claimed compounds was established by direct measurement of the effect of structurally representative compounds in the rat carrageenan edema test. This standard pharmacological procedure for determining antiinflammatory effects of a compound is performed by subcutaneous injection in the right paw of 6 animals (140-180 grams, male Sprague-Dawley or Charles River rats) with 0.1 milliliter of 1 percent carrageenan at zero time. The compounds representative of this invention are administered orally one hour prior to carrageenan at 150 milligrams per kilogram. The paw volume (edema in milliliters) is determined at zero time and three hours after carrageenan administration by mercury plethysmographic readings (milliliter) of the paw. From the change in paw volume compared to control, the percent inhibition of edema is determined. The results obtained with the compounds of Examples 1, 9, 17 and 18, which are representative of the other compounds of the invention, are as follows: […]

Compound | % Inhibition of Edema [%]
O=C1Nc2ccc(Cl)cc2Cn2nnnc21 [Example 1, 7-Chloro-5,10-dihydro-11H-tetrazolo[5,1-c][1,4]-benzodiazepine-11-one] | 39
S=C1Nc2ccc(Cl)cc2Cn2nnnc21 [Example 9, 5,10-Dihydro-7-Chloro-11H-tetrazolo[5,1-c][1,4]-benzodiazepine-11-thione] | 42
CN1CCN(C2=Nc3cc(Cl)ccc3Cn3nnnc32)CC1 [Example 17, 8-Chloro-11-(4-methyl-1-piperazinyl)-5H-tetrazolo[5,1-c][1,4]benzodiazepine] | 42
Cc1ccc2c(c1)Cn1nnnc1C(N1CCN(C)CC1)=N2 [Example 18, 7-Methyl-11-(4-methyl-1-piperazinyl)-5H-tetrazolo[5,1-c][1,4]benzodiazepine] | 33
